Experimental data reported in BindingDB's records for doi:10.1016/s0960-894x(01)00687-4 (Merck Research Laboratories, 2001).
pIC50: −log10 of the molar value.

Test: Inhibition of rate of ADP-stimulated gel-filtered human platelet aggregation mediated by integrin alphaIIb beta-3 in PLAGGIN assay

pIC50 | Structure (SMILES)
< 5.00 | C#C[C@H](CC(=O)O)NC(=O)CNC(=O)CCCc1ccc2c(n1)NCCC2 [(S)-3-[2-(4-5,6,7,8-Tetrahydro-[1,8]naphthyridin-2-yl-butyrylamino)-acetylamino]-pent-4-ynoic acid]
< 5.00 | O=C(O)C[C@H](NC(=O)CN1CC[C@H](CCc2ccc3c(n2)NCCC3)C1=O)c1cccnc1 [3-(2-{(S)-2-Oxo-3-[2-(5,6,7,8-tetrahydro-[1,8]naphthyridin-2-yl)-ethyl]-pyrrolidin-1-yl}-acetylamino)-3-(S)-pyridin-3-yl-propionic acid]
< 5.00 | O=C(O)C[C@H](NC(=O)CN1CC[C@@H](CCc2ccc3c(n2)NCCC3)C1=O)c1cccnc1 [(S)-3-(2-{(R)-2-Oxo-3-[2-(5,6,7,8-tetrahydro-[1,8]naphthyridin-2-yl)-ethyl]-pyrrolidin-1-yl}-acetylamino)-3-pyridin-3-yl-propionic acid]
< 5.00 | O=C(O)C[C@H](NC(=O)CNC(=O)CCCc1ccc2c(n1)NCCC2)c1cccnc1 [(S)-3-Pyridin-3-yl-3-[2-(4-5,6,7,8-tetrahydro-[1,8]naphthyridin-2-yl-butyrylamino)-acetylamino]-propionic acid]
< 5.00 | C#C[C@H](CC(=O)O)NC(=O)CN1CC[C@H](CCc2ccc3c(n2)NCCC3)C1=O [(S)-3-(2-{(S)-2-Oxo-3-[2-(5,6,7,8-tetrahydro-[1,8]naphthyridin-2-yl)-ethyl]-pyrrolidin-1-yl}-acetylamino)-pent-4-ynoic acid]
< 5.00 | O=C(O)CCNC(=O)CNC(=O)CCCc1ccc2c(n1)NCCC2 [3-[2-(4-5,6,7,8-Tetrahydro-[1,8]naphthyridin-2-yl-butyrylamino)-acetylamino]-propionic acid]
< 5.00 | O=C(O)C[C@H](NC(=O)CN1CCCC(CCc2ccc3c(n2)NCCC3)C1=O)c1cccnc1 (stereo partly drawn) [3-(2-{2-Oxo-3-[2-(5,6,7,8-tetrahydro-[1,8]naphthyridin-2-yl)-ethyl]-piperidin-1-yl}-acetylamino)-3-(S)-pyridin-3-yl-propionic acid]
5.15 | O=C(O)C[C@H](NC(=O)CN1CCN(CCc2ccc3c(n2)NCCC3)C1=O)c1cccnc1 [(S)-3-(2-{2-Oxo-3-[2-(5,6,7,8-tetrahydro-[1,8]naphthyridin-2-yl)-ethyl]-imidazolidin-1-yl}-acetylamino)-3-pyridin-3-yl-propionic acid]
